In patent publication US20230026163A1, “ANTICANCER COMPOUND AND MEDICAL USE THEREOF” (ASCENTAWITS PHARMACEUTICALS, LTD., priority 2019, published 2023):
pIC50: −log10 of the molar value.

Legend:
H460 cell line = test: Cytotoxicity comparison of TH-302 and compound 01 on H460 at different test times; format: cell-based, human; conditions: for pIC50: Homo sapiens, NCI-H460, 2 h, H460, exposure for 2 hours, air
Description: The cytotoxicity test results of TH-302 and compound 01 on H460 cell line under different test times in the same laboratory, the same operator, and the same experimental conditions.

[1] = system: GA6201 tumor of HuPrime® model; test: PDX model, subcutaneously transplanted human gastric cancer; format: in vivo, BALB/c nude mice; conditions: for Tumor volume: ifosfamide 60 mg/kg i.p., compound 01 5-50 mg/kg
Method: BALB/c nude mice were subcutaneously inoculated with GA6201 tumor of HuPrime® model to establish a subcutaneously transplanted tumor model of human gastric cancer. The experiment was divided into a vehicle control group 1 with normal saline (pH 7.0-7.6), a control group 2 with ifosfamide (60 mg/kg), and an Experimental group (Exp. group) with compound 01 (5-50 mg/kg), and 5 mice per group.
The Exp. group with compound 01 (5-50 mg/kg) was administered by intraperitoneal injection for 5 consecutive days and stopped for 2 days a week, and administered for 2 weeks. Then, the dose was changed to 10 mg/kg by intraperitoneal injection, administered daily for 4 days. After that, the dose and administration method were changed. The dose was 20 mg/kg by tail vein injection for 1 day. After 10 days of drug withdrawal, the dose was changed again. The dose was 50 mg/kg by tail vein injection, once a week, for 2 weeks, and one week of observation. […] The safety was evaluated according to the changes in animal body weight and death.
The tumor volume of each group of mice was measured on different days, and the average value was obtained.

`O=[N+]([O-])c1ccc(C(OP(=O)(N2CC2)N2CC2)C(F)(F)F)c2ccccc12` (stereo not shown) [Compound 01] gave a pIC50 (H460 cell line; Time 1) of 6.15, a pIC50 (H460 cell line; Time 2) of 6.52 and a pIC50 (H460 cell line; Time 3) of 6.30. For the same compound, the “Multiple TH-302/Compound 01” value (H460 cell line; Time 1) was 32.9, the “Multiple TH-302/Compound 01” value (H460 cell line; Time 2) was 26.7 and the “Multiple TH-302/Compound 01” value (H460 cell line; Time 3) was 6.6. The “Inhibition of tumor growth compared with ifosfamide (conclusion)” value ([1]; GA6201 PDX) was “obvious advantages in inhibiting tumor growth”, the Tumor volume ([1]; day 0) was 94.24 mm^3 and the Tumor volume ([1]; day 3) was 121.79 mm^3. For the same compound, the Tumor volume ([1]; day 7) was 123.19 mm^3, the Tumor volume ([1]; day 10) was 153.46 mm^3 and the Tumor volume ([1]; day 14) was 191.17 mm^3. For the same compound, the Tumor volume ([1]; day 17) was 219.91 mm^3, the Tumor volume ([1]; day 21) was 246.57 mm^3 and the Tumor volume ([1]; day 24) was 271.72 mm^3. For the same compound, the Tumor volume ([1]; day 28) was 280.86 mm^3, the Tumor volume ([1]; day 31) was 270.68 mm^3 and the Tumor volume ([1]; day 35) was 299.31 mm^3. The Tumor volume ([1]; day 38) was 277.17 mm^3, the Tumor volume ([1]; day 42) was 300.46 mm^3 and the Tumor volume ([1]; day 45) was 342.08 mm^3. The Tumor volume ([1]; day 49) was 287.47 mm^3.
